{"source": "paper PMC8215855", "about": "(Journal of medicinal chemistry, 2020)", "key": {"blood S1P concentration": {"system": "blood S1P concentration", "settings": "treatment in mice; cited from earlier work"}, "mouse SphK2": {"biological_target": "mouse SphK2", "settings": "read-out: mouse SphK2 Ki; cited from earlier work"}, "[1]": {"system": "sickle cell disease model", "settings": "SCD mice; cited from earlier work"}, "blood S1P levels [2]": {"system": "blood S1P levels", "settings": "rats dosed with 10 mg/kg; cited from earlier work"}, "human SphK1": {"biological_target": "human SphK1", "settings": "read-out: human SphK1 Ki; cited from earlier work"}, "blood S1P levels [3]": {"system": "blood S1P levels", "assay": "Blood S1P levels in mice after i.p. dose", "format": "in vivo", "settings": "single 10 mg/kg i.p., C57BL/6 male mice"}, "[4]": {"assay": "Blood concentration of compound in mice after i.p. dose", "format": "in vivo", "settings": "single 10 mg/kg i.p., C57BL/6 male mice, LC-MS/MS"}}}
{"smiles": "CCCCCCCCOc1ccc(-c2noc([C@@H]3CCCN3C(=N)N)n2)cc1C(F)(F)F.Cl", "note": "[Compound 8]", "values": [{"measurement": "blood S1P concentration", "setting": "blood S1P concentration", "result": "increase in blood S1P concentration"}]}
{"smiles": "CCCCCCCCc1ccc(-c2noc([C@@H]3CCCN3C(=N)N)n2)cc1", "note": "[Compound 7]", "values": [{"measurement": "Ki", "setting": "mouse SphK2", "result": 1.3, "unit": "µM"}]}
{"smiles": "Cc1cc(CS(=O)(=O)c2ccccc2)cc(OCc2ccc(CN3CCC[C@@H]3CO)cc2)c1", "note": "[Compound 3a]", "values": [{"measurement": "blood and plasma S1P levels", "setting": "[1]", "result": "reduced"}, {"measurement": "erythrocyte sickling", "setting": "[1]", "result": "decreased"}]}
{"smiles": "CCCCCCCCc1ccc(-c2noc(C[C@@H]3CCCN3C(=N)N)n2)cc1", "note": "[Compound 4]", "values": [{"measurement": "decrease of blood S1P levels", "setting": "blood S1P levels [2]", "result": "about 80%"}]}
{"smiles": "Cc1ccc(S(=O)(=O)Nc2ccccc2/C=N/c2ccccc2NS(=O)(=O)c2ccc(C)cc2)cc1", "note": "[Compound 5]", "values": [{"measurement": "Ki", "setting": "human SphK1", "result": "27 ± 3", "unit": "µM"}]}
{"smiles": "Cl.N=C(N)N1CCC[C@H]1c1nc(-c2ccc(OCc3ccc(C(F)(F)F)cc3)c(C(F)(F)F)c2)no1", "note": "[Compound 10, (S)-2-(3-(3-(trifluoromethyl)-4-((4-(trifluoromethyl)benzyl)oxy)phenyl)-1,2,4-oxadiazol-5-yl)pyrrolidine-1-carboximidamide]", "values": [{"measurement": "time blood S1P levels remained elevated", "setting": "blood S1P levels [3]", "result": "up to 6 hours"}, {"measurement": "increase of blood S1P levels", "setting": "blood S1P levels [3]; after 4 hours", "result": "nearly two-fold"}, {"measurement": "peak level of compound in blood", "setting": "[4]", "result": "~ 8 μM"}]}
